Data: ChEMBL document CHEMBL3137667, “[Drug-induced liver injury; fourteenth updated edition of the bibliographic database of liver injuries and related drugs]” (Gastroenterol Clin Biol, 2004)

Experiments:
[1] = human, serum
[2] = human, serum, 4383 h
[3] = human, serum; remark: listed apart in the source
[4] = human
[5] = human; remark: listed apart in the source
[6] = human; remark: listed apart in the source
[7] = Highest frequency of acute liver toxicity observed during clinical trials, expressed as a percentage. [column '% AIGUE' in source]; conditions: human
[8] = human; remark: listed apart in the source
[9] = Times to onset, minimal and maximal, observed in the indexed observations. [column 'DELAI' in source]; conditions: human
[10] = human; remark: listed apart in the source
[11] = human; remark: listed apart in the source
[12] = Comments (NB not yet translated). [column 'COMMENTAIRES' in source]; conditions: human
[13] = Highest frequency of moderate liver toxicity observed during clinical trials, expressed as a percentage. [column '% BIOL' in source]; conditions: human
[14] = human; remark: listed apart in the source
[15] = human; remark: listed apart in the source
[16] = human; remark: listed apart in the source
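Throughout, for Hepatotoxicity (association with vascular disease): count of indexed literature references reporting vascular liver injury in humans, e.g. peliosis hepatitis, hepatic veno-occlusive disease or Budd-Chiari syndrome.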
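Throughout, for Hepatotoxicity (benign tumour): value is a count of indexed literature references citing a benign tumour confirmed by histopathology.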
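Throughout, for Hepatotoxicity (choleostasis): human cholestatic liver injury, shown by histopathology or by peak ALT or AST elevation over alkaline phosphatase ratio below 2, value counts indexed literature reports.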
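Throughout, for Hepatotoxicity (chronic liver disease): chronic liver injury confirmed by histopathology or persistently raised serum aminotransferase activity beyond 6 months, value given as the count of indexed literature references.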
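Throughout, for Hepatotoxicity (cirrhosis): value is a count of indexed literature references reporting cirrhosis confirmed by histopathology.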
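Throughout, for Hepatotoxicity (cytolytic): human cytolytic liver injury, shown by histopathology or by a ratio above 5 of peak ALT or AST elevation to alkaline phosphatase elevation, value counts indexed references.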
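Throughout, for Hepatotoxicity (granulomatous hepatitis): value is a count of indexed literature references reporting granulomatous liver disease confirmed by histopathology.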
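Throughout, for Hepatotoxicity (malignant tumour): malignant tumour confirmed by histopathology, value gives the count of indexed literature references reporting it.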
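Throughout, for Hepatotoxicity (severe hepatitis): human clinical data: severe hepatitis, meaning potentially life-threatening liver failure or clinically observed cases, the value counts how many indexed literature references report it.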
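Throughout, for Hepatotoxicity (steatosis): steatosis confirmed by histopathology, value is the count of indexed references.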

Row | SMILES | Hepatotoxicity (moderate) [1] | Hepatotoxicity (chronic liver disease) [2] | Hepatotoxicity (acute) [3] | Hepatotoxicity (granulomatous hepatitis) [4] | Hepatotoxicity (cytolytic) [5] | Hepatotoxicity (choleostasis) [6] | Hepatotoxicity (acute) [7] [%] | Hepatotoxicity (benign tumour) [8] | Hepatotoxicity (time to onset) [9] | Hepatotoxicity (severe hepatitis) [10] | Hepatotoxicity (malignant tumour) [11] | Hepatotoxicity (comment) [12] | Hepatotoxicity (moderate) [13] [%] | Hepatotoxicity (steatosis) [14] | Hepatotoxicity (association with vascular disease) [15] | Hepatotoxicity (cirrhosis) [16] | Hepatotoxicity (acute) ([7]; Liver) [%] | Hepatotoxicity (severe hepatitis) ([10]; Liver) | Hepatotoxicity (moderate) ([13]; Liver) [%]
1 | CCC1=C(C)CN(C(=O)NCCc2ccc(S(=O)(=O)NC(=O)N[C@H]3CC[C@H](C)CC3)cc2)C1=O [GLIMEPIRIDE] | 0 | 0 | 2 | 0 | 1 | 1 | 0 | 0 | 2.5 months - 3.3 months | 0 | 0 | CHOLANGIOLITE | 0 | 0 | 0 | 0 | – | – | –
2 | N=C(N)c1ccc(/C=C/c2ccc(C(=N)N)cc2O)cc1 [HYDROXYSTILBAMIDINE] | 0 | 0 | 1 | 0 | 0 | 0 | 0 | 0 | 1 month | 0 | 0 | #S.REYE | 0 | 1 | 0 | 0 | – | – | –
3 | CC(=O)[C@]1(O)Cc2c(O)c3c(c(O)c2[C@@H](O[C@H]2C[C@H](N)[C@H](O)[C@H](C)O2)C1)C(=O)c1ccccc1C3=O [IDARUBICIN] | 7 | 0 | 1 | 0 | 1 | 0 | 0 | 0 | 8 days - 6 months | 2 | 0 | HCF MVO REACTIVATION_HVB | 18.2 | 0 | 1 | 0 | – | – | –
4 | CCCCC1=NC2(CCCC2)C(=O)N1Cc1ccc(-c2ccccc2-c2nnn[nH]2)cc1 [IRBESARTAN] | 2 | 0 | 2 | 0 | 0 | 2 | – | 0 | 5 days - 4 weeks | – | 0 | CHOLESTASE_PROLONGEE | – | 0 | 0 | 0 | 0 | 0 | 4.3
5 | CC(=O)/N=c1/sc(S(N)(=O)=O)nn1C [METHAZOLAMIDE] | 0 | 0 | 1 | 0 | 0 | 1 | 0 | 0 | 2 weeks | 0 | 0 | CHOLESTASE_PROLONGEE | 0 | 0 | 0 | 0 | – | – | –
6 | CCOc1ccc2ccccc2c1C(=O)N[C@@H]1C(=O)N2[C@@H]1SC(C)(C)[C@@H]2C(=O)O [NAFCILLIN] | 4 | 0 | 5 | 0 | 1 | 3 | 3.1 | 0 | 1 day - 2 weeks | 0 | 0 | RC/OXACILLINE/CEFALOTINE | 25 | 0 | 0 | 0 | – | – | –
7 | C[C@]12CC[C@H]3[C@@H](CCC4=CC(=O)CC[C@@H]43)[C@@H]1CC[C@@H]2O [NANDROLONE] | 0 | 0 | 7 | 0 | 3 | 1 | 0 | 2 | 4 months - 12 years | 0 | 0 | CHOLESTASE_PROLONGEE | 0 | 1 | 0 | 0 | – | – | –
8 | O=C(CCNNC(=O)c1ccncc1)NCc1ccccc1 [NIALAMIDE] | 0 | 0 | 2 | 0 | 2 | 1 | 0 | 0 | 3 weeks | 0 | 0 | RC/PHENIPRAZINE | 0 | 1 | 0 | 0 | – | – | –
9 | CCOC(=O)C1=C(C)NC(C)=C(C(=O)OC)C1c1cccc([N+](=O)[O-])c1 (stereo not drawn) [NITRENDIPINE] | 2 | 0 | 1 | 0 | 0 | 0 | 0 | 0 | 3 weeks | 0 | 0 | AC_ANTI-N | 18.2 | 0 | 0 | 0 | – | – | –
10 | CC1COc2c(N3CCN(C)CC3)c(F)cc3c(=O)c(C(=O)O)cn1c23 (stereo not drawn) [OFLOXACIN] | 61 | 0 | 11 | 1 | 6 | 5 | 18.2 | 0 | 4 days - 26 weeks | 2 | 0 | I/PYRAZINAMIDE | 42.2 | 0 | 0 | 0 | – | – | –
11 | O=C(O)c1cc(/N=N/c2ccc(O)c(C(=O)O)c2)ccc1O [OLSALAZINE] | 1 | 0 | 1 | 0 | 1 | 1 | 0 | 0 | 3 weeks | 0 | 0 | RC/SULFASALAZINE | 15 | 0 | 0 | 0 | – | – | –
12 | C[C@]12COC(=O)C[C@@H]1CC[C@@H]1[C@@H]2CC[C@@]2(C)[C@H]1CC[C@]2(C)O [OXANDROLONE] | 0 | 0 | 2 | 0 | 0 | 2 | 0 | 1 | 6 months | 0 | 0 | HNF | 0 | 0 | 0 | 0 | – | – | –
13 | CCCCC1C(=O)N(c2ccccc2)N(c2ccc(O)cc2)C1=O (stereo not drawn) [OXYPHENBUTAZONE ANHYDROUS] | 3 | 0 | 9 | 5 | 4 | 3 | 0 | 0 | 1 week - 2 months | 3 | 0 | RC/PHENYLBUTAZONE | 0 | 1 | 0 | 1 | – | – | –
